From ChEMBL document CHEMBL5726174, “Therapeutic compounds and uses thereof” (2019)

What follows are compounds tested against T1, Bromodomain-containing protein 9 (Homo sapiens, UniProt Q9H8M2) (assay: IC50 measurements for inhibitors using BRD9 AlphaLisa Binding Assay: His/Flag epitope tagged BRD9134-239 was cloned, expressed, and purified to homogeneity. […] After 20 minutes incubation at room temperature AlphaLisa Streptavidin Acceptor Beads (Perkin-AL125C) and AlphaLisa Nickel donor beads (Perkin AS 10 ID) were added to a final concentration of 15 ug/mL each.).
T1 sequence (Q9H8M2 whole entry): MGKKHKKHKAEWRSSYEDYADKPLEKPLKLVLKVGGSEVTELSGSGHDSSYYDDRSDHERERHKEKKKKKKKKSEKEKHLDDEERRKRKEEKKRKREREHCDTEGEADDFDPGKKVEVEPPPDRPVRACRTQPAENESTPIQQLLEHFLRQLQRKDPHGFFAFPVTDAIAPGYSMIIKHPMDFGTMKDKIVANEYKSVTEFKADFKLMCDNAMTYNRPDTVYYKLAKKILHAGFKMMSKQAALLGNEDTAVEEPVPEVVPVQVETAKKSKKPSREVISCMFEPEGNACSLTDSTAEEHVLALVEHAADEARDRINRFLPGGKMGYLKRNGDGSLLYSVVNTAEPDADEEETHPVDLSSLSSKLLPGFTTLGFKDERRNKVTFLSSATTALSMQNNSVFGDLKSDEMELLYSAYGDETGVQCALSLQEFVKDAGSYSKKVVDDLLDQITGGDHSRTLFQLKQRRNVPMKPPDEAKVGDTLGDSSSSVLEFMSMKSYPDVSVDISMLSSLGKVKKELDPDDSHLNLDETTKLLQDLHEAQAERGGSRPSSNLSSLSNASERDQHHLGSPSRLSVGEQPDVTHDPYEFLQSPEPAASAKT

Row | IC50 [nM] | Structure (SMILES)
1 | 9 | C=CCn1cc(-c2cc(OC)c(C(=O)N3CCOCC3)cc2OC)c2cc(C)[nH]c2c1=O
2 | 280 | CC(C)(O)c1ccc(-c2cn(CCC3CC3)c(=O)c3[nH]ccc23)cc1
3 | 28 | C/C=C/Cn1cc(-c2cc(C(=O)NCC)ccc2OC)c2cc[nH]c2c1=O
4 | 46 | CCCCn1cc(-c2cc(C#N)ccc2OC)c2cc[nH]c2c1=O
